In patent publication US20220218852A1, “NOVEL RADIOLABELLED CXCR4-TARGETING COMPOUNDS FOR DIAGNOSIS AND THERAPY” (PROVINCIAL HEALTH SERVICES AUTHORITY, priority 2019, published 2022):
Read-outs that look alike come from different tables or passages of the source. Values belong to the molecule of their own block, whether it stands above or below them. Positions of bridges follow the written chain, without caps; N, C: chain ends. Non-standard residues stand in square brackets, D forms with d. Residues, ends and D or L forms follow the SMILES beside them. Groups on a side chain read outwards from the residue. *: point of attachment. X1 = O=C(O)CC[C@H](NC(=O)CN1CCN(CC(=O)O)CCN(CC(=O)O)CCN(CC(=O)O)CC1)C(=O)N[C@@H](CCCCNC(=O)CNC(=O)CCCc1ccc(F)cc1)C(=O)*; X2 = Cc1ccc(CCCC(=O)NCC(=O)NCCCC[C@H](NC(=O)[C@H](CCC(=O)O)NC(=O)CN2CCN(CC(=O)O)CCN(CC(=O)O)CCN(CC(=O)O)CC2)C(=O)*)cc1; 2Nal = N[C@@H](Cc1ccc2ccccc2c1)C(=O)O; Lys(iPr) = CC(C)NCCCC[C@H](N)C(=O)O

Key:
[1] = Biodistribution in Daudi tumor-bearing mice; assay type: in vivo; conditions: male, NOD.Cg-Rag1^tm1MomII2rg^tm1Wjl/SzJ (NRG), mouse, iv, total radioactivity; for tissue uptake at 3 h: Daudi tumor-bearing mice; for tissue uptake at 1 h: Daudi xenograft bearing mice
Experimental: (§1) For Daudi, Z138, GRANTA519 and Jeko1 xenografts, male NOD.Cg-Rag1^tm1MomII2rg^tm1Wjl/SzJ (NRG) mice were subcutaneously inoculated on the left flank with 5×10^6 cells (100 μL; 1:1 ratio of PBS/Matrigel) and tumors were grown to a size of 200-500 mm^3. For PC-3 xenografts, male NOD.Cg-Rag1^tm1MomII2rg^tm1Wjl/SzJ (NRG) mice were subcutaneously inoculated on the left flank with 5×10^6 PC-3 cells (100 μL; 1:1 ratio of PBS/Matrigel) and tumors were grown to a size of 200-400 mm^3.
(§2) The mice were euthanized via CO2 inhalation while anesthetized with isoflurane. Tissues were harvested, washed in PBS, blotted dry, weighed, and measured on a Hidex AMG Automatic Gamma Counter.

[2] = tested on: Daudi Burkitt's lymphoma xenografts; experiment: Biodistribution in Daudi tumor-bearing mice; assay type: in vivo; conditions: for Ratio Tumor: Blood / Ratio Tumor: Bone / Ratio Tumor: Liver / Ratio Tumor: Lung / Ratio Tumor: Muscle / Ratio Tumor: Spleen: Daudi tumor-bearing mice, 3 h; for Ratio Tumour:Blood / Ratio Tumour:Bone / Ratio Tumour:Liver / Ratio Tumour:Lung / Ratio Tumour:Muscle / Ratio Tumour:Spleen: Daudi xenograft bearing mice, 1 h
Experimental: as §1, §2

[3] = Daudi tumor, read-out: Biodistribution Daudi (tumor)
[4] = Daudi tumour, read-out: Biodistribution Daudi (tumour)
[5] = adrenals, read-out: Biodistribution Adrenals
[6] = blood, read-out: Biodistribution Blood
[7] = bone, read-out: Biodistribution Bone
[8] = brain, read-out: Biodistribution Brain
[9] = fat, read-out: Biodistribution Fat
[10] = heart, read-out: Biodistribution Heart
[11] = intestine, read-out: Biodistribution Intestine
[12] = kidney, read-out: Biodistribution Kidney
[13] = liver, read-out: Biodistribution Liver
[14] = lung, read-out: Biodistribution Lung
[15] = muscle, read-out: Biodistribution Muscle
[16] = pancreas, read-out: Biodistribution Pancreas
[17] = spleen, read-out: Biodistribution Spleen
[18] = stomach, read-out: Biodistribution Stomach
[19] = testes, read-out: Biodistribution Testes

tissue uptake at 3 h [1, 3]: 10.4 %ID/g
tissue uptake at 1 h [1, 4]: 8.78 %ID/g
tissue uptake at 3 h [1, 5]: 0.58 %ID/g
tissue uptake at 1 h [1, 5]: 1.66 %ID/g
tissue uptake at 3 h [1, 6]: 0.95 %ID/g
tissue uptake at 1 h [1, 6]: 4.6 %ID/g
tissue uptake at 3 h [1, 7]: 0.27 %ID/g
tissue uptake at 1 h [1, 7]: 0.66 %ID/g
tissue uptake at 3 h [1, 8]: 0.03 %ID/g
tissue uptake at 1 h [1, 8]: 0.07 %ID/g
tissue uptake at 3 h [1, 9]: 0.09 %ID/g
tissue uptake at 1 h [1, 9]: 0.35 %ID/g
tissue uptake at 3 h [1, 10]: 0.32 %ID/g
tissue uptake at 1 h [1, 10]: 1.27 %ID/g
tissue uptake at 3 h [1, 11]: 0.36 %ID/g
tissue uptake at 1 h [1, 11]: 0.85 %ID/g
tissue uptake at 3 h [1, 12]: 4.77 %ID/g
tissue uptake at 1 h [1, 12]: 6.21 %ID/g
tissue uptake at 3 h [1, 13]: 2.64 %ID/g
tissue uptake at 1 h [1, 13]: 2.61 %ID/g
tissue uptake at 3 h [1, 14]: 2.1 %ID/g
tissue uptake at 1 h [1, 14]: 7.23 %ID/g
tissue uptake at 3 h [1, 15]: 0.13 %ID/g
tissue uptake at 1 h [1, 15]: 0.43 %ID/g
tissue uptake at 3 h [1, 16]: 0.26 %ID/g
tissue uptake at 1 h [1, 16]: 0.62 %ID/g
tissue uptake at 3 h [1, 17]: 1.06 %ID/g
tissue uptake at 1 h [1, 17]: 2.82 %ID/g
tissue uptake at 3 h [1, 18]: 0.12 %ID/g
tissue uptake at 1 h [1, 18]: 0.19 %ID/g
tissue uptake at 3 h [1, 19]: 0.31 %ID/g
tissue uptake at 1 h [1, 19]: 0.8 %ID/g
Ratio Tumor: Blood [2]: 10.85
Ratio Tumor: Bone [2]: 38.31
Ratio Tumor: Liver [2]: 3.91
Ratio Tumor: Lung [2]: 5.59
Ratio Tumor: Muscle [2]: 83.68
Ratio Tumor: Spleen [2]: 10.08
Ratio Tumour:Blood [2]: 1.99
Ratio Tumour:Bone [2]: 13.68
Ratio Tumour:Liver [2]: 3.46
Ratio Tumour:Lung [2]: 1.27
Ratio Tumour:Muscle [2]: 21.47
Ratio Tumour:Spleen [2]: 3.37
Structure (SMILES): CC(C)NCCCC[C@@H]1NC(=O)[C@H](Cc2ccc(O)cc2)NC(=O)[C@H](Cc2ccccc2)NC(=O)CC[C@H](C(=O)N[C@@H](CCCCNC(C)C)C(=O)N[C@@H](CCCCNC(=O)[C@H](CCC(=O)O)NC(=O)[C@H](CCCCNC(=O)CNC(=O)CCCc2ccc(F)cc2)NC(=O)[C@H](CCC(=O)O)NC(=O)CN2CCN(CC(=O)O)CCN(CC(=O)O)CCN(CC(=O)O)CC2)C(N)=O)NC(=O)CNC(=O)[C@H](Cc2ccc3ccccc3c2)NC(=O)[C@@H](CCCNC(=N)N)NC1=O [[^68Ga]Ga-BL27, metal not drawn] (FY[Lys(iPr)][dR][2Nal]G[dE][Lys(iPr)]K([Glu-X1])-NH2; lactam N-7)

tissue uptake at 3 h [1, 3]: 7.82 %ID/g
tissue uptake at 1 h [1, 4]: 4.59 %ID/g
tissue uptake at 3 h [1, 5]: 2.46 %ID/g
tissue uptake at 1 h [1, 5]: 2.53 %ID/g
tissue uptake at 3 h [1, 6]: 11.6 %ID/g
tissue uptake at 1 h [1, 6]: 14.7 %ID/g
tissue uptake at 3 h [1, 7]: 0.94 %ID/g
tissue uptake at 1 h [1, 7]: 1.14 %ID/g
tissue uptake at 3 h [1, 8]: 0.17 %ID/g
tissue uptake at 1 h [1, 8]: 0.19 %ID/g
tissue uptake at 3 h [1, 9]: 0.56 %ID/g
tissue uptake at 1 h [1, 9]: 0.64 %ID/g
tissue uptake at 3 h [1, 10]: 2.29 %ID/g
tissue uptake at 1 h [1, 10]: 3.21 %ID/g
tissue uptake at 3 h [1, 11]: 1 %ID/g
tissue uptake at 1 h [1, 11]: 1.21 %ID/g
tissue uptake at 3 h [1, 12]: 4.76 %ID/g
tissue uptake at 1 h [1, 12]: 5.41 %ID/g
tissue uptake at 3 h [1, 13]: 2.92 %ID/g
tissue uptake at 1 h [1, 13]: 2.92 %ID/g
tissue uptake at 3 h [1, 14]: 5.35 %ID/g
tissue uptake at 1 h [1, 14]: 7.11 %ID/g
tissue uptake at 3 h [1, 15]: 0.76 %ID/g
tissue uptake at 1 h [1, 15]: 0.96 %ID/g
tissue uptake at 3 h [1, 16]: 1.21 %ID/g
tissue uptake at 1 h [1, 16]: 1.49 %ID/g
tissue uptake at 3 h [1, 17]: 2.34 %ID/g
tissue uptake at 1 h [1, 17]: 2.21 %ID/g
tissue uptake at 3 h [1, 18]: 0.38 %ID/g
tissue uptake at 1 h [1, 18]: 0.47 %ID/g
tissue uptake at 3 h [1, 19]: 2.05 %ID/g
tissue uptake at 1 h [1, 19]: 1.73 %ID/g
Ratio Tumor: Blood [2]: 0.68
Ratio Tumor: Bone [2]: 8.55
Ratio Tumor: Liver [2]: 2.71
Ratio Tumor: Lung [2]: 1.46
Ratio Tumor: Muscle [2]: 10.49
Ratio Tumor: Spleen [2]: 3.38
Ratio Tumour:Blood [2]: 0.31
Ratio Tumour:Bone [2]: 4.12
Ratio Tumour:Liver [2]: 1.59
Ratio Tumour:Lung [2]: 0.65
Ratio Tumour:Muscle [2]: 4.82
Ratio Tumour:Spleen [2]: 2.08
Structure (SMILES): Cc1ccc(CCCC(=O)NCC(=O)NCCCC[C@H](NC(=O)[C@H](CCC(=O)O)NC(=O)CN2CCN(CC(=O)O)CCN(CC(=O)O)CCN(CC(=O)O)CC2)C(=O)N[C@@H](CCC(=O)O)C(=O)NCCCC[C@H](NC(=O)[C@H](CCCCNC(C)C)NC(=O)[C@H]2CCC(=O)N[C@@H](Cc3ccccc3)C(=O)N[C@@H](Cc3ccc(O)cc3)C(=O)N[C@@H](CCCCNC(C)C)C(=O)N[C@H](CCCNC(=N)N)C(=O)N[C@@H](Cc3ccc4ccccc4c3)C(=O)NCC(=O)N2)C(N)=O)cc1 [[^68Ga]Ga-BL28, metal not drawn] (FY[Lys(iPr)][dR][2Nal]G[dE][Lys(iPr)]K([Glu-X2])-NH2; lactam N-7)
